The subject of assay [1] is HIV-1 expression in PBMC cultures from HIV-1 infected subjects on cART. The assay is described as follows: Induced HIV-1 expression in PBMC cultures from HIV-1 infected subjects on cART (HIV-1 RNA in culture supernatant, COBAS TaqMan). The assay is classed as cell-based, human. Particulars: for Fold HIV-1 Activation, Geometric Mean with ≧2-Fold-Activation / Fold HIV-1 Activation, Range with ≧2-Fold-Activation: N = 12 subjects. As to the method: In some experiments, IL-15, the TLR8 modulating compound of Example 15 or the combination of IL-15 and Example 15 were used at the indicated concentrations (Table 4). The cultures were maintained in the presence of antivirals (elvitegravir and efavirenz at 100 nM each) to prevent viral spread and amplification in order to measure the quantity of virus produced (latency reversal) by the TLR8 modulating compounds. At the end of the incubation period, cell-free culture supernatants were harvested and HIV-1 RNA levels were quantified by the COBAS® AmpliPrep/COBAS®TaqMan HIV-1 Test, v2.0 (Roche).
In each table, fold-activation is calculated as a ratio of HIV-1 RNA copies per ml of cell culture supernatants from TLR8 agonist treated samples and DMSO treated controls. Geometric mean fold-activation from three independent incubation samples for each condition of each subject's PBMCs.
To assess if the latency reversal induced by TLR8 agonism could further potentiate latency reversal by a separate mechanisms, we treated cells as described above with IL-15, Example 15, or a combination of IL-15 and Example 15 (Table 4).

In assay [2] the test system is HIV-infected CD4 T cells. The assay is described as follows: PGT121 antibody-mediated killing of HIV-infected CD4 T cells, PBMC effector model. It is filed as cell-based, human. An excerpt: NK cells and monocytes mediate antibody-dependent cellular cytotoxicity (ADCC) and antibody-dependent cellular phagocytosis (ADCP) respectively. To assess the ability of the compound of Example 15 to enhance ADCC and ADCP, two models were developed using monocytes or PBMCs as effector cells and HIV-infected CD4 T cells as target cells. PBMCs were isolated from 3 healthy subjects' leukaphereses (AllCells, participant IDs A4593, A4596, A4606), as described above. CD4 T cells were isolated from PBMCs using negative selection magnetic beads (EasySep, StemCell Technologies). CD4 T cells were spinfected with HIV-1 isolate 92HT593 (NIH AIDS Reagent Program) and cultured for 5 days at 37° C. For the PBMC model, autologous PBMCs were cultured for 5 days with vehicle control (DMSO) or Example 15 at 100 or 1000 nM. […] Marker staining was measured by flow cytometry using a LSR Fortessa (BD Biosciences) and analyzed with FlowJo software (TreeStar). The percent killing was determined by calculating the reduction of p24+ CD4+ T cells mediated by PGT121 antibody relative to a no antibody control.
PBMCs (FIG. 3) or monocytes (FIG. 4) were treated with DMSO or TLR8 agonist for 5 days (FIG. 3) or 1 day (FIG. 4) and then co-cultured for 1 day with autologous HIV-infected CD4 T cells−/+anti-HIV Env antibody PGT121. Reductions in % p24+ CD4+ T cells, relative to no antibody control, were measured by FACS. […]

Where [3] appears, read: Example 15 1000 nM and/or IL-15 1 nM, subjects 205-210.

Where “and” joins values, the source holds several entries; their conditions need not be identical. Equal entries are not always repeated.

With `CCCC[C@H](CO)Nc1nc(N)nc2cccnc12` [Example 15], the “Fold HIV-1 Activation, Geometric Mean with ≧2-Fold-Activation” value stood at 4.6 fold in assay [1] (10 nM); 4.8 fold in assay [1] (100 nM); 3.4 fold in assay [1] (1,000 nM); 4.4 fold in assay [1] (10, 100, or 1000 nM). Besides, the “Fold HIV-1 Activation, Range with ≧2-Fold-Activation” value in assay [1] (10 nM) was 2.2-20.1 fold; in assay [1] (100 nM) it was 2.2-10.1 fold; in assay [1] (1,000 nM) it was 2.4-5.7 fold; in assay [1] (10, 100, or 1000 nM), 2.2-20.1 fold. Further, the “N with ≧2-Fold-Activation (%)” value in assay [1] (10 nM, subjects 172-183) was “(42) %”; in assay [1] (100 nM, subjects 172-183), “(33) %”; in assay [1] (1,000 nM, subjects 172-183) it was “(58) %”; in assay [1] (setting [3]), 50%. Further, the “Fold HIV-1 Activation” value in assay [1] (Example 15 10 nM, 4 days, individual subjects 172-183, vs DMSO) is 2.6 fold and 2.2 fold and 4.7 fold and 1.2 fold and 1.9 fold and 1.3 fold and 0.3 fold and 0.5 fold and 1.0 fold and 4.1 fold and 20.1 fold and 0.8 fold; in assay [1] (Example 15 100 nM, 4 days, individual subjects 172-183, vs DMSO) it was 3.8 fold and 6.6 fold and 2.2 fold and 1.5 fold and 1.0 fold and 0.5 fold and 0.2 fold and 0.1 fold and 0.7 fold and 1.8 fold and 10.1 fold and 1.3 fold; in assay [1] (Example 15 1000 nM and/or IL-15 1 nM, individual subjects 205-210, vs DMSO), 4.7 fold and 0.8 fold and 9.7 fold and 2.0 fold and 1.9 fold and 0.6 fold; in assay [1] (Example 15 1,000 nM, 4 days, individual subjects 172-183, vs DMSO) it was 2.7 fold and 2.4 fold and 3.3 fold and 1.2 fold and 4.7 fold and 0.3 fold (2×) and 3.4 fold and 3.0 fold and 1.3 fold and 1.6 fold and 5.7 fold. In addition, in assay [1] (Example 15 1000 nM and/or IL-15 1 nM, N = 6 subjects), the “Fold HIV-1 Activation, Geometric Mean” value was 2.1 fold. The “N with ≧2-Fold-Activation” value in assay [1] (setting [3]) is listed as 3 of 6. Further, the “PGT121-mediated killing of HIV-infected CD4+ T cells, geometric mean area under the curve (AUC)” value in assay [2] (PBMCs from 3 subjects pre-treated 5 days at 100 nM, 108 for the DMSO control) was 172. For the same compound, in assay [2] (PBMCs from 3 subjects, 100 nM), the “Increase of AUC of PGT121-mediated killing compared to DMSO control” value is given as 60%.

These data come from patent US20170071944A1, “MODULATORS OF TOLL-LIKE RECEPTORS FOR THE TREATMENT OF HIV” (Gilead Sciences, Inc., priority 2015, published 2017).
